From ChEMBL document CHEMBL1138860, “Design, synthesis, and evaluation of a potent, cell-permeable, conformationally constrained second mitochondria derived activator of caspase (Smac) mimetic” (J Med Chem, 2006)
pIC50: −log10 of the molar value.

Tests used:
MDA-MB-231 [1] = assay: Induction of cell death in MDA-MB-231 by Trypan blue exclusion assay at 1 uM 4 days; format: functional, Homo sapiens
MDA-MB-231 [2] = assay: Induction of cell death in MDA-MB-231 by Trypan blue exclusion assay at 100 nM after 4 days; format: functional, Homo sapiens
MDA-MB-231 [3] = assay: Inhibition of MDA-MB-231 cell growth by WST assay; format: functional, cell-based; details: Homo sapiens

pIC50 (MDA-MB-231 [3])	SMILES	Activity (MDA-MB-231 [1])	Activity (MDA-MB-231 [2])
5.52	CC[C@@H](C(=O)N[C@H]1CCC[C@H]2CC[C@@H](C(=O)NC(c3ccccc3)c3ccccc3)N2C1=O)N(C)C	–	–
4.19	C[C@H](O)C(=O)N[C@H]1CCC[C@H]2CC[C@@H](C(=O)NC(c3ccccc3)c3ccccc3)N2C1=O	–	–
4.30	CC[C@H](N)C(=O)N[C@H]1CCC[C@H]2CC[C@@H](C(=O)NC(c3ccccc3)c3ccccc3)N2C1=O	–	–

SMILES	pIC50 (MDA-MB-231 [3])	Activity (MDA-MB-231 [1])	Activity (MDA-MB-231 [2])
CC[C@H](NC)C(=O)N[C@H]1CCC[C@H]2CC[C@@H](C(=O)NC(c3ccccc3)c3ccccc3)N2C1=O	7.00	80%	40%
